Structures can show the parent of a compound that is named as a salt. Where two headings read alike, the source gives them in different places.

The target of assay [1] is T1, M1 muscarinic receptor (Rattus norvegicus, UniProt P08482).
T1 sequence (P08482 1-460): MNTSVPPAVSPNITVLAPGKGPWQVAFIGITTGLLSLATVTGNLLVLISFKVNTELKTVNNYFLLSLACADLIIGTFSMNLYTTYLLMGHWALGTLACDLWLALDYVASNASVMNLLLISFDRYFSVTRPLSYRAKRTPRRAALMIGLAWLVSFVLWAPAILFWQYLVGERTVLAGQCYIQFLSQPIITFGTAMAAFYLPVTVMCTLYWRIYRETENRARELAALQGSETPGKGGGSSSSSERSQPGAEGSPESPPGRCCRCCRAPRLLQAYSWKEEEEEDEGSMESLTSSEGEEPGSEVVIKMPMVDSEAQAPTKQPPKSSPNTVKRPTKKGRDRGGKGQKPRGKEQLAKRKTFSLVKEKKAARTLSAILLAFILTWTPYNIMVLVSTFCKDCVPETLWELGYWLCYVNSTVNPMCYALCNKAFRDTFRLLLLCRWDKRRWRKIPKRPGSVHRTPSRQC
Briefly: M1 receptor binding ([^3 H]-pirenzepine). More on the design: species or system rat (male Sprague-Dawley). The procedure:
Compounds are tested for their ability to affect M1 muscarinic binding through use of [^3 H]-pirenzepine ([^3 H]PZ) as a prototypic M1 receptor ligand. Male Sprague-Dawley (Charles River) rats are used. Dose selection is typically in the concentration range of 10^-9 to 10^-4 M. Test and reference compounds are dissolved and diluted in water or ethanol and are then added to the assay buffer. The appropriate vehicle is added to the assay buffer for control testing.
The rats (approximately 300 gm body weight) have free access to food and water and are housed in groups of four to six. On the test day, the rats are euthanized by decapitation and brain tissue is dissected and homogenized using a hand-held teflon-coated pestle, in 20 volumes of 0.32M sucrose (20 strokes at 4° C.). After centrifugation (747×g for 10 minutes at 4° C.), the resultant supernatant is decanted and recentrifuged (18677×g for 20 minutes at 4° C.). The resultant pellet is resuspended in the original volume of 0.32M sucrose and frozen. After thawing, the suspension is diluted (1:1 v/v) with 10 mM Na2 HPO4 /KH2 PO4 buffer (pH=7.4). [^3 H]PZ (0.5 nM, 0.04 μCi) is then incubated with a 100 μl sample of the tissue suspension in the above buffer (1 ml final volume, including a 10 μl sample of test compound or vehicle). […] After 60 minutes of incubation at 25° C. (in the dark), the binding is terminated by vacuum filtration onto Whatman GF/B filters (pre-soaked for 60 minutes in 0.1% (w/v) polyethylenimine to reduce non-specific binding). After three washes with the previously mentioned buffer (4° C., 3 ml/wash), the vacuum is allowed to run for two minutes before the filter-trapped radioactivity is assayed by liquid scintillation spectroscopy.
Data are presented as the percent inhibition ([control-test]/control×100%) or enhancement ([test-control]/control×100%) of [^3 H]PZ binding by the test or reference compound. The IC50 value (the drug concentration which causes a 50% inhibition of specific [^3 H]PZ binding) is calculated through the use of the EDOSE program (with probit transformation written by a person for use in STAT80). Increases in [^3 H]PZ are reported as percent increase (versus control) for a given test drug concentration.

Assay [2] addresses T2, M2 receptors (Rattus norvegicus, UniProt P10980).
T2 sequence (P10980 1-466): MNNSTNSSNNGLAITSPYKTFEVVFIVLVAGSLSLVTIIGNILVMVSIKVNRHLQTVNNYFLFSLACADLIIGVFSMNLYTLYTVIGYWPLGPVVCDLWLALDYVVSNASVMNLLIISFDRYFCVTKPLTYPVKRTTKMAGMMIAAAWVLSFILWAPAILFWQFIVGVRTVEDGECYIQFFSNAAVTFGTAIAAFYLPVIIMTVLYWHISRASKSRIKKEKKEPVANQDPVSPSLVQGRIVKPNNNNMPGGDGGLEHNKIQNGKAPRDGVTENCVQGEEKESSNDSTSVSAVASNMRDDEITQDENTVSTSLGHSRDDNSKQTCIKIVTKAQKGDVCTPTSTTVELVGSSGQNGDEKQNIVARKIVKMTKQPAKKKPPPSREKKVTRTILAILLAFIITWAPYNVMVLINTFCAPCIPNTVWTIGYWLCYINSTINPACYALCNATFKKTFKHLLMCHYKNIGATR
Briefly: biochemical. The format is binding.

The subject of assay [3] is M2 receptors. Briefly: biochemical. The format is binding. The following applies: Table 1; ratio of M2 IC50 to M1 IC50.
For assay [4], the system named is scopolamine-induced hyperactivity, a proposed muscarinic M1 -mediated effect. Briefly: Scopolamine-induced hyperactivity (locomotor activity). The following applies: for Total activity: N=10. The assay is classed as in vivo, rat. The procedure:
Compounds were evaluated for the ability to attenuate scopolamine-induced hyperactivity, a proposed muscarinic M1 -mediated effect. Animals were permitted to habituate for 30 minutes in locomotor activity chambers (Digiscan, Omnitech; Columbus, Ohio) in which infrared detectors were used to measure movement in 3 axes. The animals were then injected i.p. with vehicle alone, scopolamine alone (1.7 mg/kg) or both scopolamine and one dose of the test compound. Animals were then replaced in the chambers and locomotor activity was measured for an additional 1 hour period. Total activity measures (vertical+horizintal movements) were collected and statistically analyzed in four 15 minute periods.

Setting [5] is: Table 1, rat brain tissue, [^3 H]PZ 0.5 nM, read-out: ^3 H-Pirenzepine M1 IC50.

As usually defined, the IC50 is the concentration needed to halve the response being measured. For “3-[[[(3-chlorophenyl)amino]carbonyl]oxy]-N,N,N-trimethyl-1-propynaminium chloride [reference compound]”, the IC50 in assay [1] (typical results, reference drugs, read-out: IC50, [^3 H]PZ binding (M1)) turned out to be 1.3 µM; in assay [2] (typical results, reference drugs, read-out: IC50, [^3 H]QNB binding (M2)), 42 µM.

With `Cl.Cl.c1ccc2nc(NCCCN3CCOCC3)ccc2c1` [Example 2, N-[3-(4-Morpholinyl)propyl]-2-quinolinamine dihydrochloride], the half-inhibitory concentration (IC50) was determined as 2.5 µM in assay [1] (setting [5]) and 116 µM in assay [2] (read-out: ^3 H-QNB M2 IC50). In addition, the M2/M1 in assay [3] turned out to be 46.

As for `Cc1cc(NCCCN2CCN(C)CC2)nc2ccccc12` [Example 3, 4-Methyl-N-[3-(4-methyl-1-piperazinyl)propyl]-2-quinolinamine (E)-2-butenedioate (1:2) hemihydrate], the IC50 in assay [1] (setting [5]) came out at 0.6 µM; in assay [2] (read-out: ^3 H-QNB M2 IC50) it was 28 µM. The M2/M1 in assay [3] is reported as 46.

For the compound `Cc1cc(NCCCCN2CCOCC2)nc2ccccc12` [Example 4, 4-Methyl-N-[4-(4-morpholinyl)butyl]-2-quinolinamine (E)-2-butenedioate (1:1.15)], the half-inhibitory concentration (IC50) was found to be 0.54 µM in assay [1] (setting [5]) and 22 µM in assay [2] (read-out: ^3 H-QNB M2 IC50). In addition, in assay [3], the M2/M1 was 41.

In the case of `Cc1cc(NCCN2CCOCC2)nc2ccccc12` [Example 5, 4-Methyl-N-[2-(4-morpholinyl)ethyl]-2-quinolinamine (E)-2-butenedioate (3:2) quarter hydrate], the values for the IC50 in assay [1] (setting [5]) and in assay [2] (read-out: ^3 H-QNB M2 IC50) were 9.7 µM and 200 µM, respectively. Besides, in assay [3], the M2/M1 is recorded as 21.

Turning to `Cc1cc(NCCCCN2CCN(C)CC2)nc2ccccc12` [Example 6, 4-Methyl-N-[4-(4-methyl-1-piperazinyl)butyl]-2-quinolinamine (E)-2-butenedioate (1:2) one and three quarter hydrate], the IC50 came to 0.37 µM in assay [1] (setting [5]) and 5.5 µM in assay [2] (read-out: ^3 H-QNB M2 IC50). In assay [3], the M2/M1 was determined as 15.

Consider `Cc1cc(NCCCN2CCCC2=O)nc2ccccc12` [Example 7, 4-Methyl-N-[3-(1-pyrrolidin-2-on)propyl]-2-quinolinamine hydrochloride three-quarter hydrate], for which the IC50 stood at 1.3 µM in assay [1] (setting [5]) and 20 µM in assay [2] (read-out: ^3 H-QNB M2 IC50). Also, the M2/M1 in assay [3] was found to be 15.

Regarding `Cc1cc(NCCCN2CCCCC2)nc2ccccc12` [Example 8, 4-Methyl-N-[3-(1-piperidinyl)propyl]-2-quinolinamine (E)-2-butenedioate (1:1) hemihydrate], the results for the 50% inhibitory concentration (IC50) in assay [1] (setting [5]) and in assay [2] (read-out: ^3 H-QNB M2 IC50) were 0.42 µM and 4.6 µM, respectively. Besides, in assay [3], the M2/M1 amounted to 11.

With `CCc1cc(NCCCN2CCOCC2)nc2ccccc12` [Example 9, 4-Ethyl-N-[3-(4-morpholinyl)propyl]-2-quinolinamine dihydrochloride three quarter hydrate], the IC50 in assay [1] (setting [5]) is 2 µM; in assay [2] (read-out: ^3 H-QNB M2 IC50), 44 µM. Besides, the M2/M1 in assay [3] came out at 22.

For `c1ccc2c(C3CCCCC3)cc(NCCCN3CCOCC3)nc2c1` [Example 10, 4-Cyclohexyl-N-[3-(4-morpholinyl)propyl]-2-quinolinamine dihydrochlorideone quarter hydrate], the IC50 in assay [1] (setting [5]) was 2.3 µM; in assay [2] (read-out: ^3 H-QNB M2 IC50) it was 13 µM. Further, the M2/M1 in assay [3] turned out to be 6.

`CCN(CC)CCCNc1cc(C)c2ccccc2n1` [Example 11, N,N-Diethyl-N'-(4-methyl-2-quinolinyl)-1,3-propanediamine dihydrochloride hemihydrate]: the IC50 in assay [1] (setting [5]) worked out at 0.21 µM; in assay [2] (read-out: ^3 H-QNB M2 IC50), 18 µM. In addition, the M2/M1 in assay [3] came out at 86.

As to `Cc1cc(NCCN(C)C)nc2ccccc12.O=C(O)/C=C/C(=O)O` [Example 12, N,N-Dimethyl-N'-(4-methyl-2-quinolinyl)-1,2-ethanediamine (E)-2-butenedioate (1:1)], the IC50 in assay [1] (setting [5]) came out at 1.32 µM; in assay [2] (read-out: ^3 H-QNB M2 IC50), 35 µM. In addition, the M2/M1 in assay [3] was 27.

With `Cc1cc(NCCCN(C)C)nc2ccccc12.O=C(O)/C=C/C(=O)O.O=C(O)/C=C/C(=O)O` [Example 13, N,N-Dimethyl-N'-(4-methyl-2-quinolinyl)-1,3-propanediamine (E)-2-butenedioate (1:2)], the IC50 in assay [1] (setting [5]) worked out at 0.82 µM; in assay [2] (read-out: ^3 H-QNB M2 IC50) it was 21 µM. Besides, the M2/M1 in assay [3] stood at 26.

With `O=C1CCCN1CC#CCN1CCCC1` [Oxotremorine sesquifumarate, reference compound], the IC50 in assay [1] turned out to be 0.11 µM; in assay [2], 1.3 µM.

Regarding `O=C1CCCN1CC#CCN1CCCC1` [Oxotremorine], the minimal effective dose in assay [4] (Rattus norvegicus, ip, read-out: minimum effective dose) is 0.3 mg/kg. Further, the “effect on scopolamine hyperactivity at lower doses” value in assay [4] (doses below 0.3 mg/kg) is “some effect of oxotremorine was seen at lower doses”. Further, the Total activity in assay [4] (scopolamine + oxotremorine 0.03 mg/kg, 15 min) is 3020; in assay [4] (scopolamine + oxotremorine 0.03 mg/kg, 30 min), 4083; in assay [4] (scopolamine + oxotremorine 0.03 mg/kg, 45 min), 3332; in assay [4] (scopolamine + oxotremorine 0.03 mg/kg, 60 min), 2265; in assay [4] (scopolamine + oxotremorine 0.1 mg/kg, 15 min), 5709; in assay [4] (scopolamine + oxotremorine 0.1 mg/kg, 30 min), 4305. The Total activity in assay [4] (scopolamine + oxotremorine 0.1 mg/kg, 45 min) is listed as 3725; in assay [4] (scopolamine + oxotremorine 0.1 mg/kg, 60 min), 2571; in assay [4] (scopolamine + oxotremorine 0.3 mg/kg, 15 min) it was 2523; in assay [4] (scopolamine + oxotremorine 0.3 mg/kg, 30 min) it was 1819; in assay [4] (scopolamine + oxotremorine 0.3 mg/kg, 45 min) it was 2351; in assay [4] (scopolamine + oxotremorine 0.3 mg/kg, 60 min) it was 1573.

Source of the values: US5770734A, “N-substituted-2-aminoquinolines useful for treating hypofunction of the cholinergic system” (American Home Products Corporation, priority 1992, dated 1998).
